Results on 3 compounds are retold here after ChEMBL document CHEMBL1141353, “Three biscembranoids and their monomeric counterpart cembranoid, a biogenetic Diels-Alder precursor, from the soft coral Sarcophyton elegans” (J Nat Prod, 2007).

Molecules are shown by their SMILES. Active and inactive are the calls of the source. No cut-off for these calls is given here.

Data set [1] can be described thus: Toxicity in brine shrimp assessed as survival rate after 24 hrs. The format is organism-based. The conditions noted are these: artemia salina, in vivo.
The subject of the next data set is Escherichia coli. Nature of the data set: Antibacterial activity against Escherichia coli at 1.5 ug/ml. Type of data set: functional, organism-based.

As to `COC(=O)/C1=C/C(=O)C[C@@H](C)CCC[C@@H](C)C(=O)C[C@@H](C(C)C)C(=O)C1` [METHYL TETRAHYDROSARCOATE], in data set [1], the 50% lethal concentration (LC50) at 24 h was found to be 1500 nM.
Consider `COC(=O)[C@]12CC(=O)[C@H](C(C)C)CC(=O)[C@H](C)CCC[C@H](C)CC(=O)[C@H]1CC(C)=C1C[C@H](O)[C@@]3(C)O[C@@H](CC/C(C)=C/[C@@H]12)[C@@]1(C)CC[C@@H]3O1`, for which the outcome in the data set on Escherichia coli was Active.
Regarding `COC(=O)[C@]12CC(=O)[C@H](C(C)C)CC(=O)[C@H](C)CCC[C@H](C)CC(=O)[C@H]1CC(C)=C1C[C@H](O)[C@]3(C)O[C@@H]3CC[C@]3(C)O[C@@H]3CC/C(C)=C/[C@@H]12` [DIEPOXYNYALOLIDE], the median lethal concentration (LC50) at 24 h in data set [1] is 1500 nM.

As a reminder, the LC50 is the concentration lethal to half of the exposed cells or organisms.
